According to patent publication US20050222013A1, “Methods for the use of inhibitors of histone deacetylase as synergistic agents in cancer therapy” (Georgetown University, priority 2003, published 2005):

How the values were obtained:
Type in all cases: cell-based, human
SQ-20B cells [1] = experiment: IC50 determination by clonogenic cell kill (24 hour drug treatment, colonies scored after 2 to 3 weeks); conditions: 24 hour treatment
Method: IC50 is defined as the concentration of the HDAC inhibitor that kills 50% of cells following treatment with the drug. To determine the IC50, a series of dilutions of drug is used over a broad range, for example 0-1.6 μg/ml. Approximately 100-400 cells are seeded into T-25 flasks in triplicate and treated with various concentrations of the drug. After a 24 hour treatment, the cells are washed with standard PBS (phosphate buffered saline) solution. Cells are then grown in fresh media for 2 to 3 weeks. Colonies are stained with crystal violet and scored. Concentrations of drugs showing 50% cell death represent the IC50 concentration.

SQ-20B cells [2] = experiment: Clonogenic survival after ionizing radiation, fit to the single hit multitarget and linear quadratic models; parameters: α (linear quadratic model) / β (linear quadratic model) / Do (multitarget model radiosensitivity): unit not given here; conditions: for Do (multitarget model radiosensitivity) / α (linear quadratic model) / β (linear quadratic model): SQ-20B cells treated with drug at IC50, then gamma radiation
Method: Logarithmically growing SQ-20B cells were treated with TSA (about 60 ng/ml) for about 24 h and the medium was replaced with fresh medium. Cells were exposed to a graded dose of gamma radiation. A semi-logarithmic plot of the data for these cells is shown. Clonogenic survival numbers were determined and fit to the single hit multitarget and the linear quadratic models for analysis, measured by clonogenic survival analysis. Points and bars represent mean+/−SEM from triplicate flasks in each experiment.
The effectiveness of a particular treatment can be determined by measuring the radiation survival. Post treatment survival can be studied both in vitro and in vivo. For example, for in vitro determinations, exponentially growing cells can be exposed to known doses of radiation and the survival of the cells monitored. Irradiated cells are plated and cultured for about 14-about 21 days, and the colonies are stained. The surviving fraction is […]. Graphing the surviving fraction on a log scale versus the absorbed dose on a linear scale generates a survival curve. Survival curves generally show an exponential decrease in the fraction of surviving cells at higher radiation doses after an initial shoulder region in which the dose is sublethal. A similar protocol can be used for chemical agents.
Two mathematical models are commonly employed to analyze radiation survival data. A first model is the multi-target model. In this analysis, the reciprocal of the slope of the survival curve is defined as D0, the radiosensitivity of the cell population or tissue under investigation. D0 is the dose required to reduce the surviving fraction to about 37% in the exponential portion of the survival curve. The extrapolation of the linear portion of the curve to the y-intercept is denoted n. The width of the shoulder region is represented by drawing a line from the 100% survival point to the extrapolation line, this width is denoted Dq. Dq is the quasi-threshold dose, or the point at which the reduction in surviving fraction as a function of radiation dosage becomes exponential. The Dq value can also provide an estimate of an additional total dose required for each division of a single dose therapy into fractional doses. The additional dose is required to overcome the effect of sublethal damage repair that occurs when two sublethal doses are separated in time.
The linear quadratic model (surviving fraction=[…]) is used to fit radiation survival data to a continuously bending curve, where D is dose and α and β are constants. Alpha is the linear component, a measure of the initial slope that represents single-hit killing kinetics and dominates the radiation response at low doses. Beta is the quadratic component of cell killing, that represents multiple-hit killing and causes the curve to bend at higher doses. The alpha:beta ratio is the dose at which the linear and quadratic components of cell killing are equal. The more linear the response to killing of cells at low radiation dose, the higher is the value of alpha, and the greater is the radiosensitivity of the cells.
A semi-logarithmic plot of the mean+/−SEM from triplicate flasks in each experiment for these cells is shown. Logarithmically growing SQ-20B cells were treated with TSA (about 60 ng/ml) for about 24 h and the medium was replaced with fresh medium. Cells were exposed to a graded dose of gamma radiation. Clonogenic survivals were determined and fit to the single hit multitarget and the linear quadratic models for analysis.

SQ-20B cells [3] = experiment: Cell cycle distribution by flow cytometry (G1 phase); conditions: for Duration of G1 arresting effect: about 24 hour exposure, TSA about 60 ng/ml, mimosine about 0.4 mM
Method: FIGS. 2A and 2B show cell cycle distributions of SQ20B cells after treatment with either TSA (FIG. 2A) or mock treatment (FIG. 2B) for 24 h. Cells were washed with fresh medium and exposed to about 10 Gy ionizing radiation. Cell nuclei were prepared for flow cytometric analysis using the procedure of Vindelov et al. (46). The samples were analyzed on a Becton-Dickinson FACStarplus instrument and the percentage of nuclei with G1, S, and G2/M DNA content was determined. […] The radiation sensitivity of cells is a function of the cell cycle. The lethal effect of radiation exposure is often observed only after subsequent cell division. Accordingly, the G1 phase is the more radiation sensitive phase. The compounds employed in the invention are observed to maintain cells in the G1 phase following radiation exposure. Comparing FIG. 2A to FIG. 2B, it can be seen that exposure of SQ-20B cells to TSA for about 24 hours prior to radiation results in an accumulation of more than about 70% of cells in the G1 phase and a maintenance of about 50% of cells for about 12 hours. After treatment with either TSA (panel A) or mock treatment (panel B) for about 24 h, cells were washed with fresh medium and exposed to about 10 Gy ionizing radiation. Cell nuclei were prepared for flow cytometric analysis. The samples were analyzed on a Becton-Dickinson FACStarplus® instrument and the percentage of nuclei with G1, S, and G2/M DNA content was determined. By comparison, irradiated mock-treated cells are not arrested.

SQ-20B cells [4] = experiment: Apoptotic index
Method: SQ-20B cells were exposed to about 10 Gy of irradiation. Time zero refers to cells that were subjected to sham irradiation. At the indicated times thereafter, attached and floating cells were collected and the number of apoptotic cells was determined as a percentage of the total number of cells (apoptotic index). Data shown represent mean values±SD from three independent experiments.
HDAC inhibitors are known to promote cancer cell death through apoptosis in vitro and in vivo. This has been a basis for the use of HDAC inhibitors at high concentrations as a single agent in chemical therapy. However, we have determined that the amount effective to synergize radiation-induced cell death is substantially less than the amount required to promote apoptosis. […] Concentrations that produce these effects can be determined for any HDAC inhibitory compound by one of skill in the art by observation of markers of apoptosis such as, for example, the apoptotic index and caspase activities.
Treatment with TSA (about 60 ng/ml) or mock treatment was followed by radiation (about 10 Gy). At about 24, about 48, and about 72 hours, attached and floating cells were collected and the number of apoptotic cells was determined as a percentage of the total number of cells (apoptotic index).

| SMILES | IC50 (concentration that kills 50% of cells) (SQ-20B cells [1]) | Do (multitarget model radiosensitivity) (SQ-20B cells [2]) | α (linear quadratic model) (SQ-20B cells [2]) | β (linear quadratic model) (SQ-20B cells [2]) | Sensitization to ionizing radiation (SQ-20B cells [2]; head and neck tumor cells, at about the IC50 concentration) | Duration of G1 arresting effect (SQ-20B cells [3]) | Cells accumulated in the G1 phase (SQ-20B cells [3]; exposure for about 24 hours prior to radiation (about 10 Gy)) | Cells maintained in the G1 phase (SQ-20B cells [3]; maintained for about 12 hours after about 10 Gy) | Apoptotic index, treated versus mock treated (SQ-20B cells [4]; about 60 ng/ml followed by about 10 Gy, about 24, 48, 72 hours) | Promotion of apoptosis (SQ-20B cells [4]; at about 3 to about 7 times the IC50) | Promotion of apoptosis (SQ-20B cells [4]; at concentrations of about 200-about 400 ng/ml) | Promotion of apoptosis (SQ-20B cells [4]; at the IC50 concentration of about 60 ng/ml) |
| --- | --- | --- | --- | --- | --- | --- | --- | --- | --- | --- | --- | --- |
| C/C=C1\NC(=O)[C@H]2CSSCC/C=C/[C@H](CC(=O)N[C@H](C(C)C)C(=O)N2)OC(=O)[C@H](C(C)C)NC1=O [FR, depsipsptide (FR 901228)] | 0.005 µg/mL | 1.65 | 0.104 | 0.033 | – | – | – | – | – | – | – | – |
| CN(C)c1ccc(C(=O)NCCCCCCC(=O)NO)cc1 [M344] | 0.32 µg/mL | 1.65 | 0.077 | 0.033 | – | – | – | – | – | – | – | – |
| CN(C)c1ccc(C(=O)NCCCCCC(=O)NO)cc1 [MD85] | 0.1 µg/mL | 2.49 | 0.024 | 0.022 | – | – | – | – | – | – | – | – |
| O=C(CCCCCCC(=O)Nc1ccccc1)NO [SAHA, suberonylanilide hydroxamic acid] | – | 1.88 | 0.011 | 0.031 | – | – | – | – | – | – | – | – |
| CC(/C=C/C(=O)NO)=C\[C@@H](C)C(=O)c1ccc(N(C)C)cc1 [TSA, trichostatin A] | about 60 ng/ml | 1.64 | 0.126 | 0.030 | significantly sensitized head and neck tumor cells to ionizing radiation | about 12 hours | more than 70% | about 50% | the number of treated and untreated apoptotic cells were similar | does promote apoptosis | did promote significant apoptosis | did not promote significant apoptosis |
| NC(Cn1ccc(=O)c(O)c1)C(=O)O (stereo not shown) [mimosine] | – | – | – | – | – | about 4 hours | – | – | – | – | – | – |
